Test results from ChEMBL document CHEMBL5154647, “Discovery of seneciobipyrrolidine derivatives for the amelioration of glucose homeostasis disorders through 4E-BP1/Akt/AMPK signaling activation” (Eur J Med Chem, 2022).
The source made the active and inactive calls. The calls are words filed in the database; no cut-off is given here.

What was measured:
L6 [1] = assay: Induction of glucose uptake in rat L6 myoblasts at 20 uM measured after 2 hrs by liquid scintillation counter; type: functional
[2] = AUC (0 to t) in Sprague-Dawley rat at 20 mg/kg, po measured upto 10 hrs by LC/MS/MS analysis; type: ADME, organism-based; parameters: time < 10 hrs, dose 20 mg/kg, route po; conditions: in vivo
[3] = Tmax in Sprague-Dawley rat at 20 mg/kg, po measured upto 10 hrs by LC/MS/MS analysis; type: ADME, organism-based; conditions: in vivo
[4] = Cmax in Sprague-Dawley rat at 20 mg/kg, po measured upto 10 hrs by LC/MS/MS analysis; type: ADME, organism-based; parameters: time < 10 hrs, dose 20 mg/kg, route po; conditions: in vivo
[5] = Half life in Sprague-Dawley rat at 5 mg/kg, iv measured upto 24 hrs by LC/MS/MS analysis; type: ADME, organism-based; conditions: in vivo
[6] = Oral bioavailability in Sprague-Dawley rat at 20 mg/kg measured upto 10 hrs by LC/MS/MS analysis; type: ADME, organism-based; conditions: in vivo
[7] = Half life in Sprague-Dawley rat at 20 mg/kg, po measured upto 10 hrs by LC/MS/MS analysis; type: ADME, organism-based; conditions: in vivo
L6 [8] = assay: Induction of glucose uptake in rat L6 myoblasts assessed as 2-DG concentration at 25 uM preincubated for 3 hrs and in presence of 2-deoxyglucose measured after 1 hrs by DNTB reagent based colorimetric assay; type: functional; conditions: time 4 hrs
[9] = Cmax in Sprague-Dawley rat at 5 mg/kg, iv measured upto 24 hrs by LC/MS/MS analysis; type: ADME, organism-based; parameters: dose 5 mg/kg, time < 24 hrs, route iv; conditions: in vivo
[10] = AUC (0 to t) in Sprague-Dawley rat at 5 mg/kg, iv measured upto 24 hrs by LC/MS/MS analysis; type: ADME, organism-based; parameters: dose 5 mg/kg, time < 24 hrs, route iv; conditions: in vivo
Mus musculus [11] = assay: Antidiabetic activity in db/db mouse assessed as reduction in fasting blood glucose level at 75 mg/kg, po bid measured up to 21 days; type: functional; parameters: scale not given: the % may be the effect or the level left; conditions: time <= 21 day
[12] = biological target: Eukaryotic translation initiation factor 4E-binding protein 1 (Rattus norvegicus) (UniProt Q62622); assay: Activation of 4E-BP1 in rat L6 myoblasts assessed as increase in 4E-BP1 protein level at 0.1 to 25 uM by western blot analysis; type: cell-based; conditions: filed as activator, dose 0.1-25 µM, DDE = dose-dependent effect
Mus musculus [13] = assay: Antidiabetic activity in db/db mouse assessed as reduction in fasting blood glucose level at 100 mg/kg, po bid measured up to 21 days; type: functional; parameters: scale not given: the % may be the effect or the level left; conditions: time <= 21 day
Muscle tissue = assay: Effect on 4E-BP1 in db/db mouse muscle tissue assessed as increase in 4E-BP1 protein level at 100 mg/kg, po bid administered for 21 days by immunohistochemical staining analysis; type: functional, organism-based; conditions: time 21.0 day
L6 [14] = assay: Activation of Akt in rat L6 myoblasts assessed as increase in Akt protein level at 25 uM measured after 30 mins by western blot analysis; type: cell-based; conditions: filed as activator
[15] = biological target: T1, AMP-activated protein kinase, AMPK (Rattus norvegicus) (UniProt P54645+Q09137+P80386+P80385+Q9QZH4+Q6V7V4+D4A7E4); assay: Activation of AMPK in rat L6 myoblasts assessed as increase in AMPK phosphorylation at Thr172 at 25 uM measured after 30 mins by western blot analysis; type: cell-based; conditions: filed as activator
[16] = Toxicity in db/db mouse assessed as reduction in triglyceride at 100 mg/kg, po administered for 21 days; type: organism-based; conditions: in vivo, 504 h, time 21 day
[17] = biological target: Eukaryotic translation initiation factor 4E-binding protein 1 (Rattus norvegicus) (UniProt Q62622); assay: Time dependent activation of 4E-BP1 in rat L6 myoblasts assessed as increase in 4E-BP1 protein level at 10 to 180 min by western blot analysis; type: cell-based; conditions: filed as activator, time 10-180 min, TDE = time-dependent effect
Mus musculus [18] = assay: Antidiabetic activity in db/db mouse assessed as reduction in random blood glucose level at 75 mg/kg, po bid measured up to 21 days; type: functional; parameters: scale not given: the % may be the effect or the level left; conditions: time <= 21 day
L6 [19] = assay: Activation of Akt in rat L6 myoblasts assessed as increase in AKT phosphorylation at Ser473 at 0.1 to 25 uM by western blot analysis; type: cell-based; conditions: filed as activator, dose 0.1-25 µM, DDE = dose-dependent effect
L6 [20] = assay: Time dependent activation of Akt in rat L6 myoblasts assessed as increase in AKT phosphorylation at Ser473 at 10 to 180 min by western blot analysis; type: cell-based; conditions: filed as activator, time 10-180 min, TDE = time-dependent effect
[21] = biological target: T1, AMP-activated protein kinase, AMPK (Rattus norvegicus); assay: Time dependent activation of AMPK in rat L6 myoblasts assessed as increase in AMPK phosphorylation at Thr172 at 10 to 180 min by western blot analysis; type: cell-based; conditions: filed as activator, time 10-180 min, TDE = time-dependent effect
[22] = biological target: T1, AMP-activated protein kinase, AMPK (Rattus norvegicus); assay: Activation of AMPK in rat L6 myoblasts assessed as increase in AMPK protein level at 25 uM measured after 30 mins by western blot analysis; type: cell-based; conditions: filed as activator
Mus musculus [23] = assay: Improvement in glucose tolerance in db/db mouse assessed as reduction in blood glucose level at 100 mg/kg, po measured after 20 days; type: functional, organism-based; conditions: time 20.0 day
Mus musculus [24] = assay: Antidiabetic activity in db/db mouse assessed as reduction in random blood glucose level at 100 mg/kg, po bid measured up to 21 days; type: functional; parameters: scale not given: the % may be the effect or the level left; conditions: time <= 21 day
Mus musculus [25] = assay: Antidiabetic activity in db/db mouse assessed as reduction in blood glucose level at 100 mg/kg, po bid measured after 6 hrs; type: functional; parameters: scale not given: the % may be the effect or the level left
L6 [26] = assay: Activation of Akt in rat L6 myoblasts assessed as increase in AKT phosphorylation at Ser473 at 25 uM measured after 30 mins by western blot analysis; type: cell-based; conditions: filed as activator
[27] = biological target: T1, AMP-activated protein kinase, AMPK (Rattus norvegicus); assay: Activation of AMPK in rat L6 myoblasts assessed as increase in AMPK phosphorylation at Thr172 at 0.1 to 25 uM by western blot analysis; type: cell-based; conditions: filed as activator, dose 0.1-25 µM, DDE = dose-dependent effect
[28] = Toxicity in db/db mouse assessed as decrease in body weight at 100 mg/kg, po administered for 21 days; type: organism-based; conditions: in vivo, 504 h, time 21 day
[29] = Toxicity in db/db mouse assessed as reduction in triglyceride at 75 mg/kg, po administered for 21 days; type: organism-based; conditions: in vivo, 504 h, time 21 day
[30] = Toxicity in db/db mouse assessed as effect on muscle tissue morphology at 100 mg/kg, po bid administered for 21 days by H and E staining based microscopic analysis; type: organism-based; conditions: in vivo, 504 h, time 21 day
Liver = assay: Effect on 4E-BP1 in db/db mouse liver assessed as increase in 4E-BP1 protein level at 100 mg/kg, po bid administered for 21 days by immunohistochemical staining analysis; type: functional, organism-based; conditions: time 21.0 day
[31] = biological target: Eukaryotic translation initiation factor 4E-binding protein 1 (Rattus norvegicus) (UniProt Q62622); assay: Activation of 4E-BP1 in rat L6 myoblasts assessed as increase in 4E-BP1 protein level at 25 uM measured after 30 mins by western blot analysis; type: cell-based; conditions: filed as activator
Pancreas = assay: Effect on 4E-BP1 in db/db mouse pancreas assessed as increase in 4E-BP1 protein level at 100 mg/kg, po bid administered for 21 days by immunohistochemical staining analysis; type: functional, organism-based; conditions: time 21.0 day
Mus musculus [32] = assay: Improvement in glucose tolerance in db/db mouse assessed as reduction in blood glucose level at 300 mg/kg, po measured after 20 days; type: functional, organism-based; conditions: time 20.0 day
[33] = Toxicity in db/db mouse assessed as reduction in total cholesterol at 75 to 100 mg/kg, po administered for 21 days; type: organism-based; conditions: in vivo, 504 h, dose 75-100 mg/kg, time 21 day
[34] = Toxicity in db/db mouse assessed as increase in body weight at 75 mg/kg, po administered for 21 days; type: organism-based; conditions: in vivo, 504 h, time 21 day
[35] = Toxicity in db/db mouse liver assessed as reduction of fat accumulation in liver at 100 mg/kg, po bid administered for 21 days by H and E staining based microscopic analysis; type: organism-based; conditions: in vivo, 504 h, time 21 day
L6 [36] = assay: Induction of glucose uptake in rat L6 myoblasts preincubated for 3 hrs with compound and in presence of 2-deoxyglucose measured after 1 hrs by DNTB reagent based colorimetric assay; type: functional, cell-based
[37] = Toxicity in db/db mouse assessed as effect on pancreas morphology at 100 mg/kg, po bid administered for 21 days by H and E staining based microscopic analysis; type: organism-based; conditions: in vivo, 504 h, time 21 day

Eukaryotic translation initiation factor 4E-binding protein 1 (Rattus norvegicus), sequence (Q62622 whole entry): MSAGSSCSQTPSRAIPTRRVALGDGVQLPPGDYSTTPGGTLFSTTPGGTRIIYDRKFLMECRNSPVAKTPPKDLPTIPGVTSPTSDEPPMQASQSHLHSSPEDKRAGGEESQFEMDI

COc1ccc(N2CC[C@@H]3[C@@H]4CCCN4c4cc(O)c(OC)cc4[C@@H]32)cc1O (racemic) showed an Activity (L6 [1]) of 70.6%.
Molecule Cc1ccc(N2CC[C@@H]3[C@@H]4CCCN4c4ccc(C)cc4[C@@H]32)cc1 (racemic) has an Activity (L6 [1]) of 63.5%.
For COc1ccc(CN2CC[C@@H]3[C@H]4CCCN4c4ccc(OC)cc4[C@@H]32)cc1 (racemic), the Activity (L6 [1]) was 15%.
COc1ccc2c(c1)[C@H]1[C@H](CCN1Cc1ccc3c(ccn3C)c1)[C@H]1CCCN21 (racemic) gave an AUC(0-t) at 10 h [2] of 561 ng·h/mL, a Tmax [3] of 0.4 h and a Cmax [4] of 307 ng/mL. For the same molecule, the half-life [5] was 7.6 h, the bioavailability [6] was 9.5% and the half-life [7] was 11.9 h. It also gave an Activity (L6 [1]) of 68.7%, an Activity (L6 [8]) of 23.4 pmol/µL and a Cmax [9] of 981 ng/mL. For the same molecule, the AUC(0-t) at 24 h [10] was 1480 ng·h/mL.
For COc1ccc2c(c1)[C@H]1[C@H](CCN1C(=O)Cc1ccc(C)cc1)[C@H]1CCCN21 (racemic), the Activity (L6 [1]) was 101.2%.
Molecule COc1ccc2c(c1)[C@H]1[C@H](CCN1CCc1ccccc1)[C@H]1CCCN21 (racemic) has an Activity (L6 [1]) of 55.9% and an Activity (L6 [8]) of 23.4 pmol/µL.
For COc1ccc2c(c1)[C@H]1[C@H](CCN1CCc1ccc(Cl)cc1)[C@H]1CCCN21 (racemic), the Activity (Mus musculus [11]) was 65.5%, the Activity [12] was “Dde” and the Activity (Mus musculus [13]) was 62.1%. For the same molecule, the Activity (Muscle tissue) was “Active”, the Activity (L6 [14]) was “Active” and the Activity [15] was “Active”. For the same molecule, the Activity [16] was “Toxic”, the Activity [17] was “Tde” and the AUC(0-t) at 10 h [2] was 469 ng·h/mL. The Activity (Mus musculus [18]) was 77.2%, the Activity (L6 [19]) was “Dde” and the Activity (L6 [20]) was “Tde”. For the same molecule, the Activity [21] was “Tde”, the Activity [22] was “Active” and the Tmax [3] was 0.5 h. The Activity (Mus musculus [23]) was “Active”, the Cmax [4] was 141 ng/mL and the half-life [5] was 3.9 h. The Activity (Mus musculus [24]) was 79%, the bioavailability [6] was 19.9% and the half-life [7] was 12.4 h. For the same molecule, the Activity (Mus musculus [25]) was 38.1%, the Activity (L6 [26]) was “Active” and the Activity [27] was “Dde”. For the same molecule, the Activity [28] was “Toxic”, the Activity [29] was “Toxic” and the Activity [30] was “Non-Toxic”. For the same molecule, the Activity (Liver) was “Active”, the fold change (FC) [31] was 2 and the Activity (Pancreas) was “Active”. For the same molecule, the Activity (Mus musculus [32]) was “Active”, the Activity (L6 [1]) was 215.6% and the Activity [33] was “Toxic”. The Activity [34] was “Non-Toxic”, the Activity [35] was “Toxic” and the Activity (L6 [8]) was 81.9 pmol/µL. The Cmax [9] was 542 ng/mL, the EC50 (L6 [36]) was 2.7 µM and the AUC(0-t) at 24 h [10] was 588 ng·h/mL. The Activity [37] was “Non-Toxic”.
Molecule COc1ccc2c(c1)[C@H]1[C@H](CCN1Cc1ccccc1)[C@H]1CCCN21 (racemic) has an Activity (L6 [1]) of 66.4% and an Activity (L6 [8]) of 51.6 pmol/µL.
Work on COc1ccc2c(c1)[C@H]1[C@H](CCN1C(=O)c1ccc(C#N)cc1)[C@H]1CCCN21 (racemic) yielded an Activity (L6 [1]) of 71.4% and an Activity (L6 [8]) of 5.5 pmol/µL.
Molecule Cc1ccc(CN2CC[C@@H]3[C@H]4CCCN4c4ccccc4[C@@H]32)cc1 (racemic) has an Activity (L6 [1]) of 155.4%.
Work on COc1ccc2c(c1)[C@H]1[C@H](CCN1C(=O)c1ccc3ccccc3c1)[C@H]1CCCN21 (racemic) yielded an Activity (L6 [1]) of 172.4%, an Activity (L6 [8]) of 52.9 pmol/µL and an EC50 (L6 [36]) of 34.5 µM.
Work on COc1ccc2c(c1)[C@H]1[C@H](CCN1C(=O)c1ccc(O)cc1)[C@H]1CCCN21 (racemic) yielded an Activity (L6 [1]) of 86.7%.
Cc1cccc(N2CC[C@@H]3[C@H]4CCCN4c4cc(C)ccc4[C@@H]32)c1 (racemic) gave an Activity (L6 [1]) of 76.4%.
